Test results reported in patent publication US20120323016A1, “METHOD OF PREPARING DERIVATIVES/OLIGOMERS OF EPICATECHIN AND APPLICATIONS THEREOF” (NATIONAL UNIVERSITY OF SINGAPORE, priority 2009, published 2012).

Assay: Oxygen radical absorbance capacity (ORAC) assay
Procedure: Peroxyl radical scavenging capacity of the EC2S2 was determined using oxygen radical absorbance capacity (ORAC) assay (Huang, D.; Ou, B.; Hampsch-Woodill, M.; Flanagan, J. A.; Prior, R. L. High-throughput assay of oxygen radical absorbance capacity (ORAC) using a multichannel liquid handling system coupled with a microplate fluorescence reader in 96-well format. Journal of Agricultural and Food Chemistry (2002), 50(16), 4437-4444.). […] The net area under the curve has excellent linear relationship with the concentration of EC2S2. The ORAC value calculated from the individual concentration is 10.79±0.58 μmol TE/μmol sample. This is the highest ORAC value reported for pure antioxidant compounds.

**Q.** With Oc1cc(O)c2c(c1)O[C@H](c1ccc(O)c(O)c1)[C@H](O)[C@H]2SCCS[C@H]1c2c(O)cc(O)cc2O[C@H](c2ccc(O)c(O)c2)[C@@H]1O [EC2S2, (2R,2′R,3S,3′S,4S,4′S)-4,4′-(ethane-1,2-diylbis(sulfanediyl))bis(2-(3,4-dihydroxyphenyl)chroman-3,5,7-triol)] as the compound, how does the “antioxidant activity relative to EC” value (EC2S2 synthesized from Pine Bark OPCs, compared with EC) read?
**A.** two times higher than EC

**Q.** And the “ORAC value (peroxyl radical scavenging capacity)” value (calculated from the individual concentration, Trolox standard)?
**A.** 10.79±0.58 μmol TE/μmol sample
